Literature values, collected in patent US20090098202A1, “Extended Release Formulation” (BOEHRINGER INGELHEIM INTERNATIONAL GMBH, priority 2006, published 2009).
Counter-ions that a name gives are not always drawn.

Tests used:
[1] = not given; remark: listed apart in the source
[2] = in the elderly

In the case of CCCN[C@H]1CCc2nc(N)sc2C1 [Pramipexole dihydrochloride monohydrate, pramipexole dihydrochloride monohydrate], the “solubility in buffer media” value (between pH 2 and pH 7.4) is given as “above 10 mg/ml” and the Water solubility (water) is given as “more than 20 mg/ml”.
For CCCN[C@H]1CCc2nc(N)sc2C1 [Pramipexole, (S)-2-Amino-4,5,6,7-tetrahydro-6-(propylamino)benzothiazole], the stability in solution ([1]; in solution, light) is given as “light sensitive”, the “stability in the solid state” value ([1]; solid state) is given as “very stable” and the “elimination half-life (t1/2[h])” value [2] is given as 12 h.
